± gives the expanded uncertainty stated by the source.
Test: molar heat capacity at constant pressure
Settings: 101.33 kPa, Small (less than 1 g) adiabatic calorimetry

With `CC(C)(C)c1ccc(Oc2ccc([N+](=O)[O-])cc2)cc1` [1-(tert-butyl)-4-(4-nitrophenoxy)benzene] the “molar heat capacity at constant pressure” value (88.13 K, Crystal) was 121.72 ± 0.67 J/K/mol, the “molar heat capacity at constant pressure” value (88.7 K, Glass) was 125.63 ± 0.75 J/K/mol and the “molar heat capacity at constant pressure” value (88.93 K, Crystal) was 122.72 ± 0.75 J/K/mol. For the same molecule, the “molar heat capacity at constant pressure” value (89.5 K, Glass) was 126.55 ± 0.75 J/K/mol, the “molar heat capacity at constant pressure” value (89.73 K, Crystal) was 123.64 ± 0.75 J/K/mol and the “molar heat capacity at constant pressure” value (90 K, Crystal) was 123.8 ± 0.67 J/K/mol. For the same molecule, the “molar heat capacity at constant pressure” value (90.3 K, Glass) was 127.29 ± 0.75 J/K/mol, the “molar heat capacity at constant pressure” value (90.54 K, Crystal) was 124.63 ± 0.67 J/K/mol and the “molar heat capacity at constant pressure” value (91.1 K, Glass) was 128.38 ± 0.75 J/K/mol. The “molar heat capacity at constant pressure” value (91.34 K, Crystal) was 125.55 ± 0.75 J/K/mol, the “molar heat capacity at constant pressure” value (91.91 K, Glass) was 129.29 ± 0.75 J/K/mol and the “molar heat capacity at constant pressure” value (92.15 K, Crystal) was 126.55 ± 0.75 J/K/mol. The “molar heat capacity at constant pressure” value (92.71 K, Glass) was 130.12 ± 0.75 J/K/mol, the “molar heat capacity at constant pressure” value (92.95 K, Crystal) was 127.29 ± 0.75 J/K/mol and the “molar heat capacity at constant pressure” value (93.52 K, Glass) was 131.12 ± 0.75 J/K/mol. The “molar heat capacity at constant pressure” value (93.75 K, Crystal) was 128.13 ± 0.75 J/K/mol, the “molar heat capacity at constant pressure” value (94.32 K, Glass) was 132.03 ± 0.75 J/K/mol and the “molar heat capacity at constant pressure” value (94.56 K, Crystal) was 129.21 ± 0.75 J/K/mol. For the same molecule, the “molar heat capacity at constant pressure” value (95.13 K, Glass) was 132.87 ± 0.75 J/K/mol, the “molar heat capacity at constant pressure” value (95.36 K, Crystal) was 130.12 ± 0.75 J/K/mol and the “molar heat capacity at constant pressure” value (95.93 K, Glass) was 133.7 ± 0.75 J/K/mol. The “molar heat capacity at constant pressure” value (96.17 K, Crystal) was 131.04 ± 0.75 J/K/mol, the “molar heat capacity at constant pressure” value (96.73 K, Glass) was 134.69 ± 0.75 J/K/mol and the “molar heat capacity at constant pressure” value (96.97 K, Crystal) was 132.03 ± 0.75 J/K/mol. The “molar heat capacity at constant pressure” value (97.54 K, Glass) was 135.44 ± 0.75 J/K/mol, the “molar heat capacity at constant pressure” value (97.77 K, Crystal) was 132.87 ± 0.75 J/K/mol and the “molar heat capacity at constant pressure” value (98.34 K, Glass) was 136.44 ± 0.75 J/K/mol. The “molar heat capacity at constant pressure” value (98.58 K, Crystal) was 133.78 ± 0.75 J/K/mol, the “molar heat capacity at constant pressure” value (99.14 K, Glass) was 137.35 ± 0.75 J/K/mol and the “molar heat capacity at constant pressure” value (99.38 K, Crystal) was 134.61 ± 0.75 J/K/mol. The “molar heat capacity at constant pressure” value (99.95 K, Glass) was 138.35 ± 0.75 J/K/mol, the “molar heat capacity at constant pressure” value (100 K, Crystal) was 135.53 ± 0.75 J/K/mol and the “molar heat capacity at constant pressure” value (100.19 K, Crystal) was 135.53 ± 0.75 J/K/mol. For the same molecule, the “molar heat capacity at constant pressure” value (100.75 K, Glass) was 139.43 ± 0.75 J/K/mol, the “molar heat capacity at constant pressure” value (100.99 K, Crystal) was 136.44 ± 0.75 J/K/mol and the “molar heat capacity at constant pressure” value (101.55 K, Glass) was 140.18 ± 0.75 J/K/mol. The “molar heat capacity at constant pressure” value (101.79 K, Crystal) was 137.27 ± 0.75 J/K/mol, the “molar heat capacity at constant pressure” value (102.35 K, Glass) was 141.01 ± 0.75 J/K/mol and the “molar heat capacity at constant pressure” value (102.59 K, Crystal) was 138.27 ± 0.75 J/K/mol. The “molar heat capacity at constant pressure” value (103.16 K, Glass) was 142.01 ± 0.75 J/K/mol, the “molar heat capacity at constant pressure” value (103.4 K, Crystal) was 139.18 ± 0.75 J/K/mol and the “molar heat capacity at constant pressure” value (103.96 K, Glass) was 142.76 ± 0.83 J/K/mol. For the same molecule, the “molar heat capacity at constant pressure” value (104.2 K, Crystal) was 140.1 ± 0.75 J/K/mol, the “molar heat capacity at constant pressure” value (104.76 K, Glass) was 143.67 ± 0.83 J/K/mol and the “molar heat capacity at constant pressure” value (105 K, Crystal) was 141.18 ± 0.75 J/K/mol. For the same molecule, the “molar heat capacity at constant pressure” value (105.56 K, Glass) was 144.67 ± 0.83 J/K/mol, the “molar heat capacity at constant pressure” value (105.8 K, Crystal) was 141.93 ± 0.75 J/K/mol and the “molar heat capacity at constant pressure” value (106.36 K, Glass) was 145.42 ± 0.83 J/K/mol. The “molar heat capacity at constant pressure” value (106.6 K, Crystal) was 142.84 ± 0.83 J/K/mol, the “molar heat capacity at constant pressure” value (107.16 K, Glass) was 146.17 ± 0.83 J/K/mol and the “molar heat capacity at constant pressure” value (107.4 K, Crystal) was 143.67 ± 0.83 J/K/mol. For the same molecule, the “molar heat capacity at constant pressure” value (107.96 K, Glass) was 147.25 ± 0.83 J/K/mol, the “molar heat capacity at constant pressure” value (108.21 K, Crystal) was 144.51 ± 0.83 J/K/mol and the “molar heat capacity at constant pressure” value (108.77 K, Glass) was 148.25 ± 0.83 J/K/mol. For the same molecule, the “molar heat capacity at constant pressure” value (109.01 K, Crystal) was 145.5 ± 0.83 J/K/mol, the “molar heat capacity at constant pressure” value (109.57 K, Glass) was 149 ± 0.83 J/K/mol and the “molar heat capacity at constant pressure” value (109.81 K, Crystal) was 146.25 ± 0.83 J/K/mol. The “molar heat capacity at constant pressure” value (110 K, Crystal) was 146.42 ± 0.83 J/K/mol, the “molar heat capacity at constant pressure” value (110.37 K, Glass) was 149.83 ± 0.83 J/K/mol and the “molar heat capacity at constant pressure” value (110.61 K, Crystal) was 147.17 ± 0.83 J/K/mol. The “molar heat capacity at constant pressure” value (111.17 K, Glass) was 150.74 ± 0.83 J/K/mol, the “molar heat capacity at constant pressure” value (111.42 K, Crystal) was 148.08 ± 0.83 J/K/mol and the “molar heat capacity at constant pressure” value (111.97 K, Glass) was 151.66 ± 0.83 J/K/mol. For the same molecule, the “molar heat capacity at constant pressure” value (112.22 K, Crystal) was 149 ± 0.83 J/K/mol, the “molar heat capacity at constant pressure” value (112.78 K, Glass) was 152.74 ± 0.83 J/K/mol and the “molar heat capacity at constant pressure” value (113.02 K, Crystal) was 149.74 ± 0.83 J/K/mol. For the same molecule, the “molar heat capacity at constant pressure” value (113.58 K, Glass) was 153.57 ± 0.83 J/K/mol, the “molar heat capacity at constant pressure” value (113.82 K, Crystal) was 150.57 ± 0.83 J/K/mol and the “molar heat capacity at constant pressure” value (114.38 K, Glass) was 154.32 ± 0.83 J/K/mol. The “molar heat capacity at constant pressure” value (114.63 K, Crystal) was 151.57 ± 0.83 J/K/mol, the “molar heat capacity at constant pressure” value (115.18 K, Glass) was 155.23 ± 0.83 J/K/mol and the “molar heat capacity at constant pressure” value (115.43 K, Crystal) was 152.57 ± 0.83 J/K/mol. The “molar heat capacity at constant pressure” value (115.99 K, Glass) was 156.23 ± 0.83 J/K/mol, the “molar heat capacity at constant pressure” value (116.23 K, Crystal) was 153.24 ± 0.83 J/K/mol and the “molar heat capacity at constant pressure” value (116.79 K, Glass) was 156.89 ± 0.83 J/K/mol. The “molar heat capacity at constant pressure” value (117.04 K, Crystal) was 154.32 ± 0.83 J/K/mol and the “molar heat capacity at constant pressure” value (117.59 K, Glass) was 157.81 ± 0.83 J/K/mol.

— the NIST ThermoML archive (doi:10.1016/j.jct.2016.10.031)
